The numbers were not newly measured in patent US20220142944A1, “TREATMENT OF SKIN DISORDERS WITH TOPICAL TAPINAROF-EGFR INHIBITOR COMPOSITIONS” (Sol-Gel Technologies Ltd., priority 2019, published 2022), which cites them from elsewhere.

In data set [1] the test system is atopic dermatitis and plaque psoriasis.
Assay in data set [2]: not given
The source holds these as a separate data set.

[3] abbreviates: 1% tapinarof arm compared with 0.5% arm or vehicle.

Regarding `CC(C)c1c(O)cc(/C=C/c2ccccc2)cc1O` [tapinarof, 3,5-dihydroxy-4-isopropyl-trans-stilbene], in data set [1] (setting [3]), the efficacy result is recorded as “higher efficacy” and the onset of action result was “quicker onset of action”. In addition, the “most frequent adverse events” value in data set [1] (topical tapinarof) is “folliculitis and contact dermatitis”. For the same molecule, for the setting “93 of 165 with tapinarof, vehicle 34 of 82 [41%]”, the “rate of treatment-emergent adverse events” value is reported as 56%. Also, under “in vivo”, the “intensity of treatment-emergent adverse events” value is recorded as “mild to moderate”.
`C#Cc1cccc(Nc2ncnc3cc(OCCOC)c(OCCOC)cc23)c1` [erlotinib]: in data set [2], the solubility result is listed as “poorly soluble”.
